Where two headings read alike, the source gives them in different places. Positions of bridges follow the written chain, without caps; N, C: chain ends. No end group written: not given here.
Key:
[1] = test system: ADP-stimulated platelet aggregation; test: Inhibition of ADP-stimulated platelet aggregation; format: cell-based; details: Table 1
[2] = Preliminary in vivo antithrombotic studies
[3] = test system: platelet adhesion to collagen; test: Inhibition of platelet adhesion to collagen-coated microtiter wells; format: cell-based
Experimental: (§1) Polystyrene 96-well microtiter plates (Costar, Cambridge, MA) are coated with […] per well of […] collagen dissolved in 5 mM acetic acid for 1 hour at room temperature followed by blocking of the non-specific cell binding sites by addition of […] of 10 mg/ml heat-denatured BSA for 1 hour. Control wells are coated with BSA only. The wells are rinsed three times with HEPES buffered saline (HBS) containing 20 mM HEPES, pH 7.4, 0.14 M NaCl, and 2 mM MgCl2. […] of washed platelets are incubated with various concentrations of polypeptide I or buffer as a control for 5 minutes at room temperature and then added to each collagen coated well and incubated at room temperature for 45 minutes. Nonadherent platelets are removed by aspiration, and the wells are rinsed three times with […] of HBS. The number of adhered platelets is determined by protein assay, using the BCA reagent and measuring the absorbance of each well at […].
(§2) Sequence ID Nos. I, II, III, IV and V were evaluated for their ability to block platelet adhesion to collagen using the assay described in Example 2 to determine inhibition of platelet adhesion to collagen. An assay similar to the assay described in Example 2, with the exception that plates are coated with fibrinogen rather than collagen, for determining inhibition of platelet binding to fibrinogen.

[4] = test system: platelet adhesion to fibrinogen; test: Inhibition of platelet adhesion to fibrinogen-coated plates; format: cell-based; parameters: Percent Inhibition of Adhesion, Fibrinogen, Extent: dose or concentration left out as unconfirmed; details: for IC50: fibrinogen-coated plates
Experimental: as §1, §2

[5] = biological target: fibrinogen receptor glycoprotein IIb/IIIa

Substance | IC50 [1] [µM] | Antithrombotic effect in vivo [2] | Inhibition of platelet adhesion to collagen (in words) [3] | Percent Inhibition of Adhesion, Collagen, Extent ([3]; Table 1) [%] | Decrease of control A562 values (adhered platelets) ([3]; concentration dependent, control A562 0.3 to 1.0 O.D.) | Percent Inhibition of Adhesion, Fibrinogen, Extent ([4]; Table 1, concentration not given) [%] | IC50 ([4]; Table 1) [µM] | IC50 ([3]; Table 1, collagen-coated wells, washed platelets) [µM] | Specificity for platelet adhesion to collagen (versus fibrinogen) ([3]; comparison of Table 1 values) | Percent Inhibition of Adhesion, Fibrinogen, Extent [4] [%] | Percent inhibition of adhesion to collagen, Extent (washed platelets) [%] | Percent inhibition of adhesion to fibrinogen, Extent [5] [%]
H-ECESGPCCRNCKFLKEGTICKRARGDDMDDYCNGKTCDCPRNPHKGPAT-OH (disulfide 2-11, 7-32, 8-37, 20-39 (inferred)) [Polypeptide I, echistatin] | 0.03 | very effective antithrombotic agent | inhibit platelet adhesion to collagen | 50 | up to 50% | 95 | 0.27 |  |  |  |  | 
Polypeptide V: NH2 (Ch) Ala Arg Gly Asp (Cy) Z, Z = NH2; 39 amino acids, terminal amino group at Cys 39 (ECESGPCCRNCKFLKEGTICKRARGDDMDDYCNGKTCDC-NH2; not fully specified (bridges); also: terminal modifications Ch, Cy, terminal amino group at Cys 39) | 0.8 |  |  | 58 |  |  | > 8 | 0.53 | most specific for platelet adhesion to collagen | 55 |  | 
polypeptide I (Sequence ID No. 1), synthetic echistatin |  |  |  |  |  |  |  |  |  |  | 50 | 95
